# Test results: US9458137B2, “Substituted indol-5-ol derivatives and their therapeutical applications” (NantBioScience, Inc., priority 2012, dated 2016)
# Assays:
# Test in all cases: Kinase panel activity
# Details in all cases: 0.1 μM, ATP Km
# CK1(y) = assay type: biochemical, yeast
# Experimental: (§1) The effect of NTW-3475 on kinase activity was tested for a wide range of kinases and is shown in Table 2: Summary Sheet, Activity % ATP Concentration: Km
# Rsk3(h) = target: T1, Rsk3(h) (Homo sapiens, UniProt Q15349); assay type: biochemical
# T1 construct: purchased Millipore (KinaseProfiler service)
# Experimental: as §1
# EphB3(h) = target: T2, EphB3(h) (Homo sapiens, UniProt P54753); assay type: biochemical
# T2 construct: purchased Millipore (KinaseProfiler service)
# Experimental: as §1
# Ab1(H396P)(h) = Ab1(H396P)(h) (Homo sapiens, UniProt P00519, H396P); assay type: biochemical
# Experimental: as §1
# cKit(D816H)(h) = cKit(D816H)(h) (Homo sapiens, UniProt P10721, D816H); assay type: biochemical
# Sequence of cKit(D816H)(h) (P10721 26-976 D816H): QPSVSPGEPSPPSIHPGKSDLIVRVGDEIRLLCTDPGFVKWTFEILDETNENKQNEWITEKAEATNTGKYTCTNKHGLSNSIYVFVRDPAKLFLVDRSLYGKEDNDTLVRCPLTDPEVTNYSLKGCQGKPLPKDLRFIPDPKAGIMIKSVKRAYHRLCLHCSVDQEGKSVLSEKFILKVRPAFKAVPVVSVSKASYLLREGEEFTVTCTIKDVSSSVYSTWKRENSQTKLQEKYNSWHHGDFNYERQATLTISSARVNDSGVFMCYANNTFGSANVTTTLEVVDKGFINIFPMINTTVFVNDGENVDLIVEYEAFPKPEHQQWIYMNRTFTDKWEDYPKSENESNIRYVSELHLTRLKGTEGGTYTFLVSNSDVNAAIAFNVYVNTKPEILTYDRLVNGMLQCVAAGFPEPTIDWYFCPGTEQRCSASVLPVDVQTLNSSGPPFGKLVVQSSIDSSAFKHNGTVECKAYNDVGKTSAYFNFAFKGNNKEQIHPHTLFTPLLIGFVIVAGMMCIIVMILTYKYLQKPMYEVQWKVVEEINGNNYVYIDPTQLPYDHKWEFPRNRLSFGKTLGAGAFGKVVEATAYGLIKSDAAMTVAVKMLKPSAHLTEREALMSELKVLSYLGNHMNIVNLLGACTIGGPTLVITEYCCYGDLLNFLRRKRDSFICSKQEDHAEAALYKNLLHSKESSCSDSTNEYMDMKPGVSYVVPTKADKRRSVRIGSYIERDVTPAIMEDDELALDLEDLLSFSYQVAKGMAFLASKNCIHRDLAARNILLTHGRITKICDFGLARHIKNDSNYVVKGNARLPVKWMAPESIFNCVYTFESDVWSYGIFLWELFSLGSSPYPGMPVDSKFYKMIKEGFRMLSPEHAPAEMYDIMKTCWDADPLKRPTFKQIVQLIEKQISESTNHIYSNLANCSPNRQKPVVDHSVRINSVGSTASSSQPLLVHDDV
# Experimental: as §1
# Rsk2(h) = target: T3, Rsk2(h) (Homo sapiens, UniProt P51812); assay type: biochemical
# T3 construct: purchased Millipore (KinaseProfiler service)
# T3 sequence (P51812 whole entry): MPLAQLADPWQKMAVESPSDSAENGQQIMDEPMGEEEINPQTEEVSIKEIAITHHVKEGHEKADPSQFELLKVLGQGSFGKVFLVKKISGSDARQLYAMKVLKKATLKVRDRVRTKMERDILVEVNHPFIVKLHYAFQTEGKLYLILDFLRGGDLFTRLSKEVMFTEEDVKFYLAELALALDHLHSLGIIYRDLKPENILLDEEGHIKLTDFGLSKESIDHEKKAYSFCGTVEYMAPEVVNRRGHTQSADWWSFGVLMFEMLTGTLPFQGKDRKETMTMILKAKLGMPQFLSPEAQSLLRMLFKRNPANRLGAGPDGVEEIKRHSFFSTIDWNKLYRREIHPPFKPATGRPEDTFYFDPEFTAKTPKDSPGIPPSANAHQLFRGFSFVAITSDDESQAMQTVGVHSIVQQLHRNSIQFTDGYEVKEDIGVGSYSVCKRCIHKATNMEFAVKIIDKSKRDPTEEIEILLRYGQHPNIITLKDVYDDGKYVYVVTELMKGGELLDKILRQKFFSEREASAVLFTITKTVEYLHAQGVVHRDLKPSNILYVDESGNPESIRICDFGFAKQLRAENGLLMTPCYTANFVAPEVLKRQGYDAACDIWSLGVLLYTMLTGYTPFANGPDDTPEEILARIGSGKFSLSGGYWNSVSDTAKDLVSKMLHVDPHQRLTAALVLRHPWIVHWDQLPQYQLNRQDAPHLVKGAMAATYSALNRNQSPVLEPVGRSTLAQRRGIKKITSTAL
# Experimental: as §1
# Syk(h) = target: T4, Syk(h) (Homo sapiens, UniProt P43405); assay type: biochemical
# T4 construct: purchased Millipore (KinaseProfiler service)
# Experimental: as §1
# MEK1(h) = target: T5, MEK1(h) (Homo sapiens, UniProt Q02750); assay type: biochemical
# T5 construct: purchased Millipore (KinaseProfiler service)
# Experimental: as §1
# Fes(h) = target: T6, Fes(h) (Homo sapiens, UniProt P07332); assay type: biochemical
# T6 construct: purchased Millipore (KinaseProfiler service)
# Experimental: as §1
# B1k(h) = B1k(h) (Homo sapiens, UniProt P51451); assay type: biochemical
# Experimental: as §1
# cKit(h) = cKit(h) (Homo sapiens, UniProt P10721); assay type: biochemical
# Sequence of cKit(h) (P10721 26-976): as the sequence (P10721 26-976 D816H) above, with H791D counted along it
# Experimental: as §1
# TAK1(h) = target: T7, TAK1(h) (Homo sapiens, UniProt O43318); assay type: biochemical
# T7 construct: purchased Millipore (KinaseProfiler service)
# Experimental: as §1
# EGFR(T790M)(h) = target: T8, EGFR(T790M)(h) (Homo sapiens, UniProt P00533, T790M); assay type: biochemical
# T8 construct: purchased Millipore (KinaseProfiler service)
# Experimental: as §1
# PKCζ(h) = PKCζ(h) (Homo sapiens, UniProt Q05513); assay type: biochemical
# Sequence of PKCζ(h) (Q05513 whole entry): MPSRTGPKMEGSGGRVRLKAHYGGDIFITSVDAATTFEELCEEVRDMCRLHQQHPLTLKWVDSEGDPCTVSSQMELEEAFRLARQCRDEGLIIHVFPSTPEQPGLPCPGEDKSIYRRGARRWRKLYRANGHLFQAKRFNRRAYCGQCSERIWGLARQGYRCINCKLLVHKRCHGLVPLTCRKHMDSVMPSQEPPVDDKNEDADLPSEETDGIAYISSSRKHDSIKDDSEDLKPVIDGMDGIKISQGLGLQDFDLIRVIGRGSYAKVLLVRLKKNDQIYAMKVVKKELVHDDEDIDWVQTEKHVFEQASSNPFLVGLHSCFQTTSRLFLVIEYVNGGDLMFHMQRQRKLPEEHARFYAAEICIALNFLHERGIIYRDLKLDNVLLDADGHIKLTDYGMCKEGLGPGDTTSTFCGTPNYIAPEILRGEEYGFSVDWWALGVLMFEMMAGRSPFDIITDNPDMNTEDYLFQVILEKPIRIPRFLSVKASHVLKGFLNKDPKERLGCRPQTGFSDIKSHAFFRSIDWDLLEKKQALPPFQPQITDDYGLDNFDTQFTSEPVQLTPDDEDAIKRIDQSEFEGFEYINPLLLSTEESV
# Experimental: as §1
# PrKX(h) = target: T9, PrKX(h) (Homo sapiens, UniProt P51817); assay type: biochemical
# T9 construct: purchased Millipore (KinaseProfiler service)
# T9 sequence (P51817 whole entry): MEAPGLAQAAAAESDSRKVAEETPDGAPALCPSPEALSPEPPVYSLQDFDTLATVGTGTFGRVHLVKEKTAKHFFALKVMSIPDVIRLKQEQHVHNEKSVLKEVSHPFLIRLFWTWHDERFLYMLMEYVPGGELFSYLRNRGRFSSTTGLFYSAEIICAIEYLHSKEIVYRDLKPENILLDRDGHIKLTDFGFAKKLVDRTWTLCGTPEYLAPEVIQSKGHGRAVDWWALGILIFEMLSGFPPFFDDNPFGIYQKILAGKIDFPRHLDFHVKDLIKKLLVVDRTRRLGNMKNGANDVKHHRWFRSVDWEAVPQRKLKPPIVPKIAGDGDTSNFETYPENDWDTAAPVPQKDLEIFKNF
# Experimental: as §1
# SGK3(h) = target: T10, SGK3(h) (Homo sapiens, UniProt Q96BR1); assay type: biochemical
# T10 construct: purchased Millipore (KinaseProfiler service)
# T10 sequence (Q96BR1 whole entry): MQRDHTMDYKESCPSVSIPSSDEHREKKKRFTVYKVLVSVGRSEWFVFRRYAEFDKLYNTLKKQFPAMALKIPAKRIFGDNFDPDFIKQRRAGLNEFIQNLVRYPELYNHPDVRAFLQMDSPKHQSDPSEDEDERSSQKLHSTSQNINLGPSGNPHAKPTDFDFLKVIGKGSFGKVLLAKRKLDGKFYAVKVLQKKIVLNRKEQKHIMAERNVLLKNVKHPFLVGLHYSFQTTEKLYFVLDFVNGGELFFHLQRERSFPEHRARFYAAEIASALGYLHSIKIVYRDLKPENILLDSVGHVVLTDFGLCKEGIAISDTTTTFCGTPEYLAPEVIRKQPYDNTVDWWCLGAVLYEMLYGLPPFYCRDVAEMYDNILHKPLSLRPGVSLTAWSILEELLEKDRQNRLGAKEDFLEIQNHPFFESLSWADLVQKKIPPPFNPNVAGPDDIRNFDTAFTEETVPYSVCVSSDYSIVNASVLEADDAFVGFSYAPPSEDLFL
# Experimental: as §1
# Fgr(h) = Fgr(h) (Homo sapiens, UniProt P09769); assay type: biochemical
# Experimental: as §1
# F1t1(h) = F1t1(h) (Homo sapiens, UniProt P17948); assay type: biochemical
# Experimental: as §1
# PDGFRα(D842V)(h) = PDGFRα(D842V)(h) (Homo sapiens, UniProt P16234, D842V); assay type: biochemical
# Experimental: as §1
# PKCβ1(h) = PKCβ1(h) (Homo sapiens, UniProt P05771); assay type: biochemical
# Sequence of PKCβ1(h) (P05771 whole entry): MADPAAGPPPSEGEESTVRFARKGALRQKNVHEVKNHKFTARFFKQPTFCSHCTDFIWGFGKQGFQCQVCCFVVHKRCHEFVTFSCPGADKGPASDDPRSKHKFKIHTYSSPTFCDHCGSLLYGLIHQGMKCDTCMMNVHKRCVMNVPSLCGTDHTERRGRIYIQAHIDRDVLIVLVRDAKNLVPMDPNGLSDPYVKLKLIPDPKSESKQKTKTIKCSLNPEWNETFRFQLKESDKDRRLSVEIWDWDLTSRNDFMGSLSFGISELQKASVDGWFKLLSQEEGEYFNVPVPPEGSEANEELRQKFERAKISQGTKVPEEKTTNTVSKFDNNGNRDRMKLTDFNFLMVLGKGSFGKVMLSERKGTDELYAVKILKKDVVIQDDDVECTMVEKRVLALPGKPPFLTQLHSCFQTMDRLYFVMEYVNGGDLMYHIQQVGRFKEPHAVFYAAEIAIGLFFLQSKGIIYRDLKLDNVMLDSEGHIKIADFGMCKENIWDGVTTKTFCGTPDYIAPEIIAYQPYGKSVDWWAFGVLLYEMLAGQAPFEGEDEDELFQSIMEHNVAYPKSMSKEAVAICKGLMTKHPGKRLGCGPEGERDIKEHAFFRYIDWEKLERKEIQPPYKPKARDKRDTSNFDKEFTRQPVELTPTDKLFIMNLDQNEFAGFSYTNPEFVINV
# Experimental: as §1
# SAPK2a(T106M)(h) = target: T11, SAPK2a(T106M)(h) (Homo sapiens, UniProt Q16539, T106M); assay type: biochemical
# T11 construct: purchased Millipore (KinaseProfiler service)
# T11 sequence (Q16539 whole entry T106M): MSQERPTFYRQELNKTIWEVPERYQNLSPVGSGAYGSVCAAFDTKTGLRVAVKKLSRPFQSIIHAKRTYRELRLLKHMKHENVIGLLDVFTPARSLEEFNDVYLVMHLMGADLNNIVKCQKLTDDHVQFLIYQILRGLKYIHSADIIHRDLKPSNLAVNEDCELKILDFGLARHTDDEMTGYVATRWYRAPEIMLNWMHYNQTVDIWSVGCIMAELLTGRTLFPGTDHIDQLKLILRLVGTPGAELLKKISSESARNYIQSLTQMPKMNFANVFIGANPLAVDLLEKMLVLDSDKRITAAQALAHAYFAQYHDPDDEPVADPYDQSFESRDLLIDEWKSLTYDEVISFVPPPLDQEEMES
# Experimental: as §1
# Src(1-530)(h) = target: T12, Src(1-530)(h) (Homo sapiens, UniProt P12931); assay type: biochemical
# T12 construct: Src(1-530)(h); purchased Millipore (KinaseProfiler service)
# Experimental: as §1
# Lyn(m) = Lyn(m) (Mus musculus, UniProt P25911); assay type: biochemical
# Experimental: as §1
# MST2(h) = MST2(h) (Homo sapiens, UniProt Q13188); assay type: biochemical
# Experimental: as §1
# NEK6(h) = NEK6(h) (Homo sapiens, UniProt Q9HC98); assay type: biochemical
# Experimental: as §1
# Fms(h) = Fms(h) (Homo sapiens, UniProt P07333); assay type: biochemical
# Experimental: as §1
# Tie2(R849W)(h) = target: T13, Tie2(R849W)(h) (Homo sapiens, UniProt Q02763, R849W); assay type: biochemical
# T13 construct: purchased Millipore (KinaseProfiler service)
# Experimental: as §1
# Ab1(T3151)(h) = Ab1(T3151)(h) (Homo sapiens, UniProt P00519, T315I); assay type: biochemical
# Experimental: as §1
# EphA2(h) = target: T14, EphA2(h) (Homo sapiens, UniProt P29317); assay type: biochemical
# T14 construct: purchased Millipore (KinaseProfiler service)
# Experimental: as §1
# PKC ? (h) = PKC ? (h) (Homo sapiens, UniProt Q02156); assay type: biochemical
# Experimental: as §1
# HIPK1(h) = HIPK1(h) (Homo sapiens, UniProt Q86Z02); assay type: biochemical
# Experimental: as §1
# PKBα(h) = PKBα(h) (Homo sapiens, UniProt P31749); assay type: biochemical
# Experimental: as §1
# Lck(h) = Lck(h) (Homo sapiens, UniProt P06239); assay type: biochemical
# Experimental: as §1
# Fms(Y969C)(h) = Fms(Y969C)(h) (Homo sapiens, UniProt P07333, Y969C); assay type: biochemical
# Experimental: as §1
# Aurora-C(h) = Aurora-C(h) (Homo sapiens, UniProt Q9UQB9); assay type: biochemical
# Sequence of Aurora-C(h) (Q9UQB9 whole entry): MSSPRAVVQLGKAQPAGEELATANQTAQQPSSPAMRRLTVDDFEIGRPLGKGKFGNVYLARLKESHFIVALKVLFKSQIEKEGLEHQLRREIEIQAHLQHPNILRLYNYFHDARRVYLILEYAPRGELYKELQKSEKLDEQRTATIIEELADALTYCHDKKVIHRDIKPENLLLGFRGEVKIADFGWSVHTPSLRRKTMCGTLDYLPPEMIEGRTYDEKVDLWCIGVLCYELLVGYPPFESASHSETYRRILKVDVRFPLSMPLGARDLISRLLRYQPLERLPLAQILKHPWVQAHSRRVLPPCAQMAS
# Experimental: as §1
# PKG1α(h) = PKG1α(h) (Homo sapiens, UniProt Q13976); assay type: biochemical
# Experimental: as §1
# MELK(h) = target: T15, MELK(h) (Homo sapiens, UniProt Q14680); assay type: biochemical
# T15 construct: purchased Millipore (KinaseProfiler service)
# Experimental: as §1
# BrSK2(h) = BrSK2(h) (Homo sapiens, UniProt Q8IWQ3); assay type: biochemical
# Experimental: as §1
# NEK2(h) = NEK2(h) (Homo sapiens, UniProt P51955); assay type: biochemical
# Sequence of NEK2(h) (P51955 whole entry): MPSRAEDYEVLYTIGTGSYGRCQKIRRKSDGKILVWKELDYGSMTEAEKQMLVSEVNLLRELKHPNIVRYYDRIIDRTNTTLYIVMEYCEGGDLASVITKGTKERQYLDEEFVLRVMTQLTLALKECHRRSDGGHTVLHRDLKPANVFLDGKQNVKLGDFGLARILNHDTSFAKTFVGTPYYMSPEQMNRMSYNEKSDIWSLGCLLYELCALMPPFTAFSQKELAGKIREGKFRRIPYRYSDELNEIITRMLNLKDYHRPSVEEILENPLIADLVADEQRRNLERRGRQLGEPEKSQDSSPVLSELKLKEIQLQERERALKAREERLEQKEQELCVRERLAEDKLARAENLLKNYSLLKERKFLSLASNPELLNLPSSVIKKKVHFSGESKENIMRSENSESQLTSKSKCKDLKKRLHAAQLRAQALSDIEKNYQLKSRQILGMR
# Experimental: as §1
smiles,measurement,setting,value
Cc1cc2c(F)c(Oc3nc(Nc4cc(C5CC5)[nH]n4)cc(N4CCN(C)CC4)n3)cc(F)c2[nH]1 [NTW-3475],Activity %,CK1(y),100%
same,Activity %,Rsk3(h),25%
same,Activity %,EphB3(h),99%
same,Activity %,Ab1(H396P)(h),−3%
same,Activity %,cKit(D816H)(h),9%
same,Activity %,Rsk2(h),65%
same,Activity %,Syk(h),84%
same,Activity %,MEK1(h),63%
same,Activity %,Fes(h),32%
same,Activity %,B1k(h),9%
same,Activity %,cKit(h),84%
same,Activity %,TAK1(h),65%
same,Activity %,EGFR(T790M)(h),61%
same,Activity %,PKCζ(h),109%
same,Activity %,PrKX(h),68%
same,Activity %,SGK3(h),102%
same,Activity %,Fgr(h),2%
same,Activity %,F1t1(h),11%
same,Activity %,PDGFRα(D842V)(h),17%
same,Activity %,PKCβ1(h),92%
same,Activity %,SAPK2a(T106M)(h),95%
same,Activity %,Src(1-530)(h),−2%
same,Activity %,Lyn(m),1%
same,Activity %,MST2(h),79%
same,Activity %,NEK6(h),90%
same,Activity %,Fms(h),8%
same,Activity %,Tie2(R849W)(h),6%
same,Activity %,Ab1(T3151)(h),−2%
same,Activity %,EphA2(h),−1%
same,Activity %,PKC ? (h),99%
same,Activity %,HIPK1(h),91%
same,Activity %,PKBα(h),109%
same,Activity %,Lck(h),−8%
same,Activity %,Fms(Y969C)(h),4%
same,Activity %,Aurora-C(h),21%
same,Activity %,PKG1α(h),100%
same,Activity %,MELK(h),40%
same,Activity %,BrSK2(h),44%
same,Activity %,NEK2(h),101%
